Measured values taken from patent US9198896B2 (priority 2006, dated 2015).
Where two headings read alike, the source gives them in different places. Marks after values point to notes of the source that are not given here.

Columns and labels:
[1] = Pharmacokinetics, repeat oral dose study; type: in vivo; conditions: mice; for V / k / half-life at 30 days: oral 100 mg/kg body wt./day; for half-life at 30 days: mouse, whole blood, po, 100 mg/kg, read-out: t½ (converted)
[2] = rats
Method: (§1) Long-term (chronic) toxicity study: Mode of treatment and dilution by either water or normal saline were identical to acute toxicity study. Chronic toxicity study was made with four species of animals: mice, rat, rabbit and dog.
Rats. For experiment with these animals, 4 batches of rats were used per mode of treatment. Each batch contained 5 rats either male or female weighing 75-80 g per animal. […] Then, the rats were injected for 3 cycles; one cycle consisted of injections for two consecutive days followed by a rest of 1 day.
(§2) Total number of animals in each group including control and different modes of treatment: 6 (mice), 5 (rats) and 4 (rabbits). Each set of experiment was repeated 4 times for mice and rats and for rabbits 2 times respectively. […] In Table 3, αWeight of animals for mice and rats in gm and for rabbit in Kg.
Details are described in the Tables.

EAC cells = assay: Increase in body weight of EAC cell-inoculated mice; type: in vivo
[3] = mice, 1 day: oral 2 g, subcutaneous 1 g, intravenous 0.3 g/kg; observed up to 90 days
[4] = both, rat, in vivo, 6 weeks
[5] = Histological studies with mice; type: in vivo; conditions: oral 0.5 gm/kg once a day for 10 weeks
From the text: After end of the treatment, the mice were killed, and several organs were excised and processed for histological studies. Bone marrow cells were taken from the marrow cavity of the femur bone.
Histological studies with mice: Histological studies were done with several organs of mice, and the results are presented in FIG. 1.

[6] = Pharmacokinetics, single oral dose study; conditions: for ka (apparent absorption rate constant): 1 to 4 h; for k (elimination rate constant): 4-8 h; for half-life / CL/F / Cmax / Tmax: mouse, whole blood, po
[7] = Long-term (chronic) toxicity study, rabbits; conditions: rabbit, long-term treatment
From the text: as §1
Rabbits. For experiments with rabbits, two groups were used per mode of treatment. Each group in each mode of treatment consists of 4 animals, either male or female.
However, each animal was placed in a separate cage.
as §2
We also measured the body weights of the animals. […] Besides, we also measured several marker enzymes and metabolites in the blood and sera of dog (see below).

[8] = Long-term (chronic) toxicity study, mice; conditions: multiple dose, observed up to 90 days after treatment
From the text: as §1
Mice. For experiment with these animals, 4 batches of mice were used per mode of treatment. Each batch contained 6 animals either male or female weighing 18-25 g. […] In all the cases, control group received water or normal saline in respective manner.
as §2

[9] = Biochemical tests of blood/sera of rats after long-term treatment; type: in vivo, rat; conditions: 1 week after long-term treatment
Teratogenicity study = type: in vivo, mice; conditions: treatment (oral and intravenous) from conception for 3 weeks
Method: Teratogenicity: For this test, mating was performed between mice as mentioned above in the case of fertility studies. […] But, as soon as they conceived, as indicated by vaginal plug formation, the treatment (oral and intravenous) started and continued for 3 weeks in a similar fashion for chronic toxicity studies. […] These litters also grew up healthy with no signs of abnormality. Healthy litters were born again when mating was performed among these animals.

[10] = time after last dose Up to 48 h
[11] = oral 100 mg/kg/day, last dose day 30
[12] = mice, single oral dose 50 mg/kg
[13] = mice, single oral dose 100 mg/kg
[14] = mice, single oral dose 200 mg/kg

## CC(=O)C=O [methylglyoxal]
[1]; time after last dose 48-120 h
  V: 50.89 L/kg
  k: 0.0231 h − 1
  half-life at 30 days: 30 h
[1]; [10]
  V: 73.90 L/kg
  k: 0.0017 h − 1
  half-life at 30 days: 408 h
[1]; [11]
  day from which peak concentration was achieved: three
  day on which the basal level was reached: ~35 days
[2]; intravenous, from 3rd week of the treatment
  local reaction to intravenous injections: swelling appeared in the tail and adjoining regions
[2]; multiple dose, observed up to 90 days after treatment
  toxic effect on physical condition and behavioral pattern, death: No toxic effect
EAC cells; Table 8, MG 30 mg/kg/day, Day 15
  Percent increase in body weight: 15.8 ± 1.3%
EAC cells; Table 8, MG 30 mg/kg/day, Day 20
  Percent increase in body weight: 19.0 ± 1.6%
EAC cells; Table 8, MG 30 mg/kg/day, Day 25
  Percent increase in body weight: 30.0 ± 2.9%
EAC cells; Table 8, MG 30 mg/kg/day, Day 30
  Percent increase in body weight: 32.9 ± 3.0%
EAC cells; Table 8, MG 30 mg/kg/day, Day 35, 2 animals survived out of 6
  Percent increase in body weight: 38.8 ± 3.0^b %
EAC cells; Table 8, MG 100 mg/kg/day, Day 15
  Percent increase in body weight: 8.0 ± 0.7%
EAC cells; Table 8, MG 100 mg/kg/day, Day 20
  Percent increase in body weight: 10.0 ± 1.2%
EAC cells; Table 8, MG 100 mg/kg/day, Day 25
  Percent increase in body weight: 11.0 ± 1.0%
EAC cells; Table 8, MG 100 mg/kg/day, Day 30
  Percent increase in body weight: 11.2 ± 0.9%
EAC cells; Table 8, MG 100 mg/kg/day, Day 35
  Percent increase in body weight: 11.2 ± 1.1%
EAC cells; Table 10, MG 30 mg/kg/day ip, Day 20
  Percent increase in body weight: 19.0 ± 1.6%
EAC cells; Table 10, MG 30 mg/kg/day ip, Day 30
  Percent increase in body weight: 32.9 ± 3.0%
EAC cells; Table 10, MG 100 mg/kg body weight/day ip, Day 30
  Percent increase in body weight: 11.2 ± 0.9%
EAC cells; Table 10, MG 100 mg/kg body weight/day ip, Day 35
  Percent increase in body weight: 11.2 ± 1.1%
[3]
  death: No death
[4]
  healthy litters per female, on an average: 5
[5]
  histological examination of organs (liver, kidney, spleen, duodenum, bone marrow): none of the organs tested by histological examination had any adverse effect
[6]; [12]
  Lag time: ≈55 min
  V (apparent volume of distribution): 23.31 L/kg
  ka (apparent absorption rate constant): 0.277 h⁻¹
  k (elimination rate constant): 0.33 h⁻¹
[6]; [13]
  Lag time: ≈50 min
  V (apparent volume of distribution): 41.84 L/kg
  ka (apparent absorption rate constant): 0.223 h⁻¹
  k (elimination rate constant): 0.198 h⁻¹
[6]; [14]
  Lag time: ≈50 min
  V (apparent volume of distribution): 80.97 L/kg
  ka (apparent absorption rate constant): 0.216 h⁻¹
  k (elimination rate constant): 0.192 h⁻¹
[6]; mice, single oral dose, all the three doses (50, 100, 200 mg/kg)
  lag time: 50 to 55 min
[6]; mice, untreated and orally treated
  concentrations in plasma and whole blood compared: almost identical
[6]
  half-life: 2.1 to 3.6 h
[6]; 50 mg/kg
  CL/F: 128 mL/min/kg
  Cmax: 13.9 µM
  half-life: 2.1 h
[6]; 50 mg/kg, tmax, mice, single oral dose 50 mg/kg
  Tmax: ~4 h
[6]; 100 mg/kg
  CL/F: 138 mL/min/kg
  Cmax: 18.7 µM
  half-life: 3.5 h
[6]; 100 mg/kg, tmax, mice, single oral dose 100 mg/kg
  Tmax: ~4 h
[6]; 200 mg/kg
  CL/F: 259 mL/min/kg
  Cmax: 19.5 ± 3.36 µM
  half-life: 3.6 h
[6]; 200 mg/kg, time of peak blood concentration (tmax), mice, single oral doses of 50, 100 and 200 mg/kg
  Tmax: 4 h
[6]; 200 mg/kg, tmax, mice, single oral dose 200 mg/kg
  Tmax: ~4 h
[7]
  general physical conditions and behavioral pattern vs control: no abnormalities
[8]
  death and toxic effect (physical and behavioral): No death and toxic effect
[9]; Intravenous
  Creatine kinase: 0.36 ± 0.04 units/ml
  Creatine kinase-MB: 0.18 ± 0.01 units/ml
  Hb: 10.2 ± 0.8 gm/dl
  Serum Urea: 26.3 ± 2.1 mg/dL
  Serum alanine transaminase: 28 ± 1.6 units/ml
  Serum alkaline phosphatase: 41.6 ± 1.2 KA units
  Serum aspartate transaminase: 125 ± 5 units/ml
  Serum creatinine: 0.90 ± 0.02 mg/dL
  Serum glucose: 102 ± 10 mg/dL
[9]; Oral
  Creatine kinase: 0.37 ± 0.05 units/ml
  Creatine kinase-MB: 0.16 ± 0.03 units/ml
  Hb: 10.4 ± 0.3 gm/dl
  Serum Urea: 24.3 ± 1.9 mg/dL
  Serum alanine transaminase: 24 ± 2.5 units/ml
  Serum alkaline phosphatase: 39.3 ± 1.6 KA units
  Serum aspartate transaminase: 132 ± 3 units/ml
  Serum creatinine: 0.82 ± 0.03 mg/dL
  Serum glucose: 109 ± 6 mg/dL
[9]; Subcutaneous
  Hb: 10.35 ± 0.35 gm/dl
  Serum Urea: 23.5 ± 1.3 mg/dL
  Serum alanine transaminase: 28 ± 2.8 units/ml
  Serum alkaline phosphatase: 45.3 ± 1.8 KA units
  Serum aspartate transaminase: 141 ± 7 units/ml
  Serum creatinine: 0.85 ± 0.03 mg/dL
  Serum glucose: 122 ± 3 mg/dL
Teratogenicity study
  outcome of pregnancy (teratogenicity): gave birth to healthy litters
